Source: paper PMC6949291, “An evolutionarily conserved iron-sulfur cluster underlies redox sensory function of the Chloroplast Sensor Kinase” (Communications Biology, 2020)

Tests used:
[1] = target: T1, Syn-CSK (Hik2) (Synechocystis sp. PCC 6803, UniProt P73276); assay: autophosphorylation, autoradiography; type: biochemical; conditions: 0.5 mM, MgCl2, pH 8, 22 °C, reductant of the [3Fe-4S] cluster, inhibitor of autokinase activity
T1 construct: octamer

[2] = target: the molecule itself; assay: SEC; Superdex 200 10/300GL Increase; air-oxidized protein eluted with 20 mM Tris-HCl pH 8 and 10 mM NaCl (legend; methods say 20 mM NaCl), or the same buffer with 2 mM sodium dithionite; mass from a calibration curve

## Cc1c(C)c(O)c(C)c(C)c1O [duroquinol]
[1]
  autophosphorylation with [γ-^32P]ATP, autoradiography: Treatment with reducing agents: dithionite, duroquinol, or decylPQH2 inhibit Syn-CSK

B1: Synechocystis sp. PCC 6803 Histidine kinase 2 (Hik2), reconstituted holoprotein (enzyme, UniProt P73276 1-434, looked up)
chain: MAGSISSMYSPSAGLISLCQSQVRLLQQGLRVDWCGVYLNQEETEQGLVPLVVSHGSTLVESESYGLISLPQGEVSPPMDDFSLPAVPVGVGQLSRRSRLEPPPFDADKRLVLPLVYGEEMVGLLVIHRSQGQWHGEEMMQLEAIAKSLAVACLLDQQQDWYRQAWEEQNQQYQWERQHWADLLHQLRNPLTALKTFSKLLLKRWHGDNKSQQVVEGIVRQGEHLQELLQSFEASQSQGPEAVPLLSSSPVTTIQVLPPADRVETMPLANFSLGEVLPPILLAHQAIAAERNITLTAQIALIDTVVMANRLALREVVNNLLDNGIKYTPNGGLVEVSLALEKVSSSGMDWATLAIADTGYGIPPEDQQKIFERNYRGVQGRGSINGTGLGLAIVADLVAQMGGKITVTSPNGLSRDPDQPGSTFTLWLRSGEQV
notes: Histidine kinase 2 (Hik2, slr1147), the cyanobacterial CSK homologue, Synechocystis sp; Each monomer carries one [3Fe-4S] cluster (holoprotein after reconstitution with iron and sulfide); also called Syn-CSK; holoSyn-CSK
[2]
  stoichiometry N: 8
